According to BindingDB's records for doi:10.1021/jm00164a014 (Wellcome Research Laboratories, 1990):

How the values were obtained:
[1] = target: Trifunctional purine biosynthetic protein adenosine-3 (Mus musculus) (UniProt Q64737); test: Inhibition activity against Glycinamide ribonucleotide transformylase (GAR-TFase) from L cell
ATIC (Sus scrofa) = test: Inhibition activity against AICAR formyltransferase from hog liver

Trifunctional purine biosynthetic protein adenosine-3 (Mus musculus), sequence (Q64737 whole entry, looked up): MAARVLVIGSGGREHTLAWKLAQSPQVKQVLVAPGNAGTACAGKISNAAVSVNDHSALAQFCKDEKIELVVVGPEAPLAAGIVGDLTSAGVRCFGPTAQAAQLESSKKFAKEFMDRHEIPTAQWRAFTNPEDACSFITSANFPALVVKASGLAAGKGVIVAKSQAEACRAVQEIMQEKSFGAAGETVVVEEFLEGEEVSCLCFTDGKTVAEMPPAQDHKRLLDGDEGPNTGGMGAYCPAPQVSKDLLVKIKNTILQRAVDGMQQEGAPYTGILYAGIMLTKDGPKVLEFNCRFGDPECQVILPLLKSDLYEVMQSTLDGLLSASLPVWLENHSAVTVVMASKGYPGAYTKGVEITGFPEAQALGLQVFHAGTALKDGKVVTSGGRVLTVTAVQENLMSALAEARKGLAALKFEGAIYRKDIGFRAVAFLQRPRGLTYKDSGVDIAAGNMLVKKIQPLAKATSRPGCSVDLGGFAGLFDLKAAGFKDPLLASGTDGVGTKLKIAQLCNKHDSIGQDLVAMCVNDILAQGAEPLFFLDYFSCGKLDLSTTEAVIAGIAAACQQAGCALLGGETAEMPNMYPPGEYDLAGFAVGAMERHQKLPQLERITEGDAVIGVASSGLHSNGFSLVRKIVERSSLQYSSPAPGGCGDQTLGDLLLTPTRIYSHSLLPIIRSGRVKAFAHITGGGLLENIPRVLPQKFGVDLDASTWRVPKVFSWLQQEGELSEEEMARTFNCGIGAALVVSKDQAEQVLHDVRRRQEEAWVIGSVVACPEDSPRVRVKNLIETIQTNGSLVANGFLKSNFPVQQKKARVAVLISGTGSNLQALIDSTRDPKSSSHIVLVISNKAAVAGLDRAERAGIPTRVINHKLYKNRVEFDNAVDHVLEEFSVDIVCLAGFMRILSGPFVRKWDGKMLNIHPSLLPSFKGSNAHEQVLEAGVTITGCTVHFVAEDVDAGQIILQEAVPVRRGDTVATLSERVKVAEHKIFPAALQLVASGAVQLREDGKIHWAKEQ

- IC50 [1]: 4.3 µM
- IC50 (ATIC (Sus scrofa)): 68 µM
SMILES: CN(CCCc1c(N)nc(N)[nH]c1=O)c1ccc(C(=O)NC(CCC(=O)O)C(=O)O)cc1 (configuration not stated)
